Reference: patent EP0351767A2, “Use of potassium channel activators to inhibit myocardial cell necrosis and to maintain the functioning of the heart during myocardial ischemia and/or reperfusion” (E.R. SQUIBB & SONS, INC., priority 1988, dated 1990)
pIC50: −log10 of the molar value. Like-named read-outs stand apart in the source and are kept apart here. Each block holds one molecule with its values, some of them ahead of it.

Tests used:
rat portal vein = assay: Inhibition of spontaneous mechanical activity (twitch height and frequency) in isolated rat portal vein; conditions: for pIC50: Rattus norvegicus
Description: (§1) A bicarbonate buffered physiological salt solution (PSS) was used containing, in mM: 118.4 NaCl, 4.7 KCl, 1.2 KH₂PO₄ 1.2 MgSO₄, 2.5 CaCl₂, 25.0 NaHCO₃ and 11.7 glucose. PSS with varying concentrations of KCl was prepared by addition of appropriate amounts of KCl from a 4M KCl stock. Calcium free PSS was prepared by deletion of CaCl₂ and addition of 1.0 mM [ethylenebis(oxyethylenitrilo)]-tetraacetic acid (EGTA). All solutions were aerated with 95% O₂-5% CO₂ such that the pH was 7.4. Experiments were conducted at 37°C.
Stock solutions of test compounds were prepared daily. The compounds were dissolved in water or DMSO as appropriate.
(§2) Normotensive male Wistar Kyoto rats approximately 14 weeks old were sacrificed using CO₂. The thoracic aorta and portal vein were quickly removed and placed into cold PSS. Blood was rinsed from the lumen and adherent connective tissue was carefully removed. Rings approximately 4 mm in width were cut from each aorta. The endothelium was mechanically removed by inserting a wire into the lumen and gently rolling the ring on filter paper moistened with PSS. The aortic rings were mounted on stainless steel tissue wires attached to tissue holders. An intact segment of portal vein extending approximately 2 cm from the liver hilus was mounted longitudinally on tissue holders. The tissues were suspended in individual 20 ml organ chambers and connected to a micrometer for control of tissue length and a Grass FT.03 force transducer. Mechanical responses were recorded on Grass Model 7D polygraphs.
The rat portal vein segments were gradually stretched over a 1 to 2 hour equilibration period to a preload of 0.5 g. When the frequency and height of the spontaneous twitches had stabilized, propranolol (1 µM) was added and cumulative concentration response curves were obtained for the test compounds. A steady state reduction of the twitch height and frequency was reached before the next concentration was added.
Force development by the portal vein segments was determined at the peak of the twitch. The effect of each compound on force was calculated relative to the force in its absence. IC₅₀ values were determined at the concentration where 50% of the maximal inhibition force was attained. In addition, the relative frequency of twitches was determined by counting the number of twitches in a 5 minute period following drug addition and determining the change in rate from basal (absence of test compund). Results were then calculated as % inhibition of twitch frequency. Data are report as mean ± SEM.

[1] = system: isolated, buffer perfused rat hearts; assay: Global ischemia (25 min) and reperfusion (30 min) in isolated, buffer perfused rat hearts (Langendorff)
Description: For the determination of the effect of the potassium channel activators pinacidil and BRL 34915 (cromakalim) on post-ischemic necrosis and function, isolated, buffer perfused rat hearts were used. Male Sprague-Dawely rats (450-550 g) were used for all experiments. The rats were anesthetized using 30 mg/kg sodium pentobarbital (i.p.) They were intubated and then treated with i.v. heparin (1000 U/kg). While being mechanically ventilated, their hearts were perfused in situ via retrogade cannulation of the aorta. The hearts were then excised and quickly moved to a Langendorff apparatus where they were perfused with Krebs-Henseleit (1.25 mM CaCl₂) buffer at a constant pressure (80 mmHg). A saline-filled latex balloon attached to a metal cannula was then inserted into the left ventricle and connected to a Statham pressure transducer for measurement of left ventricular systolic and developed (LVDP) pressure. The hearts were allowed to equilibrate for 15 minutes at which time end diastolic pressure (EDP) was adjusted to 5 mm Hg and this was maintained for 5 minutes. Pre-ischemia, pre-drug function (HRXLVDP/1000), heart rate, and coronary blood flow (extracorporeal electromagnetic flow probe, Carolina Medical Electronics, King, N.C.) were then determined.
Once the baseline measurements were made, the hearts were divided into 4 groups (n=4-6 each): 1. Hearts receiving vehicle. 2. Hearts receiving 1, 10 or 100 µM pinacidil. 3. Hearts receiving 1 or 7 µM BRL 34915. 4. Hearts receiving 1, 10 or 100 µM nicroandil. Each heart received its respective treatment in the perfusion buffer for 10 minutes at which time functional and flow parameters were again measured. All hearts were then made globally ischemic by shutting off the perfusate for 25 minutes. Reperfusion was then instituted with the normal nondrug treated buffer. Reperfusion was maintained for 30 minutes at which time flow and functional parameters were again measured. Lactate dehydrogenase (LDH) release into the reperfusion effluent was measured and this is a measure of myocardial cell death or necrosis. The severity of ischemia was determined by the return of function during reperfusion, mitigation of contracture (lower end diastolic pressure) and LDH release.

[2] = system: Ischemic-Reperfused Myocardium; conditions: infusion prior to and during a 15-min coronary occlusion; 3-h reperfusion period; cited from earlier work
[3] = system: awake dogs with acute myocardial infarction; conditions: cited from earlier work
aorta = assay: Comparison of potency in aorta (phenylephrine contractions) and portal vein; design: species or system rat; conditions: portal vein compared with aorta
Description: as §1
as §2, with “The tissues were suspended in individual 20 ml organ chambers and connected to a micrometer for control of tissue length and a Grass FT.03 force transducer.” left out

[4] = inhibition of spontaneous mechanical activity (twitch height), cumulative concentration response curves, propranolol 1 µM present, N=4 (cromakalim, pinacidil N=5), read-out: IC₅₀

SMILES: O=C(O)c1cccnc1 [nicotinic acid]
- recovery of mycocardial segment function (%SS, dL/dt) [2]: significantly improved recovery

SMILES: CC(NC(=NC#N)Nc1ccncc1)C(C)(C)C (single isomer, unassigned; (+)) [Pinacidil, (+)-2-cyano-1-(4-pyridyl)-3-(1,2,2-trimethylpropyl)guanidine]
- pIC50 (rat portal vein; [4]): 6.82
- post-ischemic cardiac function ([1]; 10 µM, 30 min reperfusion): significantly improved
- reperfusion end diastolic pressure (EDP) (contracture) ([1]; 10 µM, 30 min reperfusion): reduced
- toxic effects (before ischemia reduction in function) ([1]; 100 µM): a tendency for toxic effects
- anti-ischemic activity ([1]; 1 and 100 µM in perfusion buffer for 10 min before ischemia): did not show any marked anti-ischemic activity
- necrosis as measured by lactate dehydrogenase (LDH) release ([1]; at the doses used (1, 10 or 100 µM)): did not significantly reduce necrosis
- blood flow to ischemic myocardium [3]: no effect
- infarct size [3]: no effect

SMILES: O=C(NCCO[N+](=O)[O-])c1cccnc1 [Nicorandil, N-(2-hydroxyethyl)nicotinamide nitrate ester]
- pIC50 (rat portal vein; values restated in text, read-out: IC₅₀ (50% of the maximum inhibition) in the inhibition of spontaneous mechanical activity in rat portal vein): 5.29
- pIC50 (rat portal vein; [4]): 5.29
- potency in the aorta and portal vein (aorta): reduced potency
- effectiveness (anti-ischemic) ([1]; any dose used (1, 10 or 100 µM)): not showed to be effective
- recovery of mycocardial segment function (%SS, dL/dt) [2]: significantly improved recovery

Second part, led by results:

- pIC50 (rat portal vein; [4]): 6.92
SMILES: CC1(C)Oc2ccc(C#N)cc2[C@@H](N2CCCC2=O)[C@@H]1O (racemic) [Cromakalim, (±)-6-cyano-3,4-dihydro-2,2-dimethyl-trans-4-(2-oxo-1-pyrrolidyl)-2H-benzo[b]-pyran-3-ol]
- LDH release and thus necrosis ([1]; 7 µM): reduced
- myocardial function during reperfusion ([1]; 7 µM): improved

- pIC50 (rat portal vein; [4]): 4.42
SMILES: CC1(C)Oc2ccc(C#N)cc2[C@@H](N)[C@@H]1O (relative stereo) [SQ 32,844, (trans)-4-amino-3,4-dihydro-3-hydroxy-2,2-dimethyl-2H-1-benzopyran-6-carbonitrile]

- pIC50 (rat portal vein; [4]): 4.37
SMILES: Nc1nc2c(nc(Br)n2[C@@H]2O[C@@H]3COP(=O)(O)O[C@H]3[C@H]2O)c(=O)[nH]1 [8-Bromo cyclic GMP]
- twitch frequency (rat portal vein; frequency of spontaneous contractions with increasing concentration): reduced twitch frequency
